Measured values reported in patent publication US7501425B1, “Bicyclic pyrimidines and bicyclic 3,4-dihydropyprimidines as inhibitors of cellular proliferation” (Warner Lambert Company, priority 1999, dated 2009).

How the values were obtained:
cdk4/D = cdk4/D (Homo sapiens, UniProt P11802); assay: Cyclin-Dependent Kinase 4 (cdk4) enzyme assay, 32P incorporation; format: biochemical; details: 25 μM ATP, retinoblastoma substrate
Experimental: A typical assay, for instance, measures inhibitory activity against the cyclin D dependent kinase 4 enzyme (cdk4/D). […] The cdk4 assay was carried out as follows.
Cyclin-Dependent Kinase 4 (cdk4) Assay
Enzyme assays for IC50 determinations (Tables 1 and 2) and kinetic evaluation were performed in 96 well filter plates (Millipore MADVN6550). The total volume was 0.1 mL containing a final concentration of 20 mM TRIS (tris[hydroxymethyl]aminomethane), at pH 7.4, 50 mM NaCl, 1 mM dithiothreitol, 10 mM MgCl2, 25 μM ATP containing 0.25 μCi of [^32P]ATP, 20 ng of cdk4, 1 μg of retinoblastoma, and appropriate dilutions of a compound of the present invention. All components except the ATP were added to the wells, and the plate was placed on a plate mixer for 2 minutes. The reaction was started by adding [^32P]ATP and the plate was incubated at 25° C. for 15 minutes. The reaction was terminated by addition of 0.1 mL of 20% trichloroacetic acid (TCA). The plate was kept at 4° C. for at least 1 hour to allow the substrate to precipitate. The wells were then washed five times with 0.2 mL of 10% TCA and ^32p incorporation was determined with a beta plate counter (Wallac Inc., Gaithersburg. MD).

cdk2/cyclinE = cdk2/cyclinE (Homo sapiens, UniProt P24941); assay: Cyclin-dependent kinase assay cdk2/cyclinE; format: biochemical; details: read-out: cdk2/E IC50
Experimental: (§1) Cyclin-Dependent Kinase Assays (cdk2/cyclinE, cdk2/cyclinA, cdc2/cyclinB)
(§2) All components except the ATP were added to the wells, and the plate was placed on a plate mixer for 2 minutes. The reaction was begun by addition of [^32P]ATP, and the plate was incubated at 25° C. for 15 minutes. The reaction was terminated by addition of 0.1 mL of 20% TCA. The plate was kept at 4° C. for at least 1 hour to allow the substrate to precipitate. The wells were then washed five times with 0.2 mL of 10% TCA and ^32P incorporation determined with a beta plate counter (Wallac Inc., Gaithersburg, Md.).

cdk2/cyclinA = cdk2/cyclinA (Homo sapiens, UniProt P24941); assay: Cyclin-dependent kinase assay cdk2/cyclinA; format: biochemical
Experimental: as §1, §2

cdc2/cyclinB = cdc2/cyclinB (Homo sapiens, UniProt P06493); assay: Cyclin-dependent kinase assay cdc2/cyclinB (cdk1/B); format: biochemical
cdc2/cyclinB, sequence (P06493 whole entry, species assumed): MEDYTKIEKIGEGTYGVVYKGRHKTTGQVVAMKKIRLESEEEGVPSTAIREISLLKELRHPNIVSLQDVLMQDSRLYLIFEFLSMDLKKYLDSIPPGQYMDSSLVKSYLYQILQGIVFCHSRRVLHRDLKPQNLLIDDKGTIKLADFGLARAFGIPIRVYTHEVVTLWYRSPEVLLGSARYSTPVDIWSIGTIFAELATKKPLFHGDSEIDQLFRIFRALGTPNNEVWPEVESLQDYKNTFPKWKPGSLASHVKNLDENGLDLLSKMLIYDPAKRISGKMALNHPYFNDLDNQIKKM
cdc2/cyclinB, sequence (P14635 whole entry partner, species assumed): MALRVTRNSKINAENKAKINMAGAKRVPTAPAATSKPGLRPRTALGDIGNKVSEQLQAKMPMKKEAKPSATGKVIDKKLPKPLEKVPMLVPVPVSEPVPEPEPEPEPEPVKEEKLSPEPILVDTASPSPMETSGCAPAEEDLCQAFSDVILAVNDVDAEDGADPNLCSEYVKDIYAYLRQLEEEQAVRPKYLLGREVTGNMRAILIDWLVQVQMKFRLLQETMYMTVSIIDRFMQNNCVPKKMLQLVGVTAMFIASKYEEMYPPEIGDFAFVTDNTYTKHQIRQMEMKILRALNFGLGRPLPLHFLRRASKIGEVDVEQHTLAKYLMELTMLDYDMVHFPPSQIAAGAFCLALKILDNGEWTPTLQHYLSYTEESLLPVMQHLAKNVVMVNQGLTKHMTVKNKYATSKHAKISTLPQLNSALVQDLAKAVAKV
Experimental: as §1, §2

[1] = biological target: T1, FGF-1 (flg) receptor tyrosine kinase (Homo sapiens, UniProt P11362); assay: FGF receptor tyrosine kinase assay; format: biochemical; details: intracellular tyrosine kinase domain, SF9 lysate
T1 construct: amplify a fragment of DNA that codes for the intracellular tyrosine kinase domain; made in house; host or cells: SF9 insect cells (baculovirus)
T1 sequence (P11362 478-767 limits assumed): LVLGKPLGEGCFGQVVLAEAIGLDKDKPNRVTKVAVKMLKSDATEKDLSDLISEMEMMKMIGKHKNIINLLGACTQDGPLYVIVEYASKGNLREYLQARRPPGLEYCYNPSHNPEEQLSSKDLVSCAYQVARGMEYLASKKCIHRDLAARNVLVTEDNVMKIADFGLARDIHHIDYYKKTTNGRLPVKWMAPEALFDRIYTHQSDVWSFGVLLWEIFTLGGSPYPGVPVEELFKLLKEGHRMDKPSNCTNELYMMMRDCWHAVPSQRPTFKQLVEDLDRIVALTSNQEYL
Experimental: The assays used to determine these activities were carried out as follows:
PDGF and FGF Receptor Tyrosine Kinase Assays
PCR primers were designed to amplify a fragment of DNA that codes for the intracellular tyrosine kinase domain. The fragment was inserted into a baculovirus vector, cotransfected with AcMNPV DNA, and the recombinant virus isolated. SF9 insect cells were infected with the virus to overexpress the protein, and the cell lysate was used for the assay. Assays were performed in 96-well plates (100 μL/incubation/well), and conditions were optimized to measure the incorporation of ^32P from γ^32P-ATP into a glutamate-tyrosine co-polymer substrate. Briefly, to each well was added 82.5 μL of incubation buffer containing 25 mM Hepes (pH 7.0), 150 mM NaCl, 0.1% Triton X-100, 0.2 mM PMSF, 0.2 mM Na3VO4, 10 mM MnCl2, and 750 μg/mL of Poly (4:1) glutamate-tyrosine followed by 2.5 μL of inhibitor and 5 μL of enzyme lysate (7.5 μg/μL FGF-TK or 6.0 μg/μL PDGF-TK) to initiate the reaction. Following a 10 minute incubation at 25° C., […] of γ^32P-ATP (0.4 μCi plus 50 μM ATP) was added to each well, and samples were incubated for an additional 10 minutes at 25° C. […] Nonspecific activity was defined as radioactivity retained on the filters following incubation of samples with buffer alone (no enzyme). […]

c-Src = biological target: T2, c-Src (Homo sapiens, UniProt P12931); assay: c-Src kinase assay; format: biochemical; details: 5 μM ATP, poly GluTyr substrate
T2 construct: made in house; host or cells: baculovirus infected insect cells
T2 sequence (P12931 whole entry, species assumed): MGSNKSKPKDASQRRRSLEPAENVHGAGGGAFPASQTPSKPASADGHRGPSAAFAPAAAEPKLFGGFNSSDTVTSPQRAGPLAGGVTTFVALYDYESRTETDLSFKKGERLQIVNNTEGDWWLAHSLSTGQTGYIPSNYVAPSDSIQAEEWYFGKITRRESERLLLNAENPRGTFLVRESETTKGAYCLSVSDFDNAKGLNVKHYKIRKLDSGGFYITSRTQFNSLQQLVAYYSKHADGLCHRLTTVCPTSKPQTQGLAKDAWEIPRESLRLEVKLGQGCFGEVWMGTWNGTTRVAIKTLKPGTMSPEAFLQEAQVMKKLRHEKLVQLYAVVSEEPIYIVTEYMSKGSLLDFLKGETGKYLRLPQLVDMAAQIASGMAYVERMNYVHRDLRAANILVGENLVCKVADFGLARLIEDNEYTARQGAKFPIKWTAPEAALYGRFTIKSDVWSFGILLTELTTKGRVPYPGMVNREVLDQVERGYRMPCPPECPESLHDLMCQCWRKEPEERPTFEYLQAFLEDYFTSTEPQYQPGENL
Experimental: Several of the invention compounds have been evaluated in a standard assay to measure their ability to inhibit cellular Src protein kinase (c-Src). […] The assay was carried out as follows:
c-Src kinase was purified from baculovirus infected insect cell lysates using an antipeptide monoclonal antibody directed against the N-terminal amino acids (amino acids 2-17) of c-Src. The antibody, covalently linked to 0.65 μm latex beads, was added to a suspension of insect cell lysis buffer comprised of 150 mM NaCl, 50 mM Tris pH 7.5, 1 mM DTT, 1% NP-40, 2 mM EGTA, 1 mM sodium vanadate, 1 mM PMSF, 1 μg/mL each of leupeptin, pepstatin, and aprotinin. Insect cell lysate containing c-Src protein was incubated with these beads for 3 to 4 hours at 4° C. with rotation. At the end of the lysate incubation, the beads were rinsed three times in lysis buffer, resuspended in lysis buffer containing 10% glycerol, and frozen. These latex beads were thawed, rinsed three times in assay buffer (40 mM Tris, pH 7.5, 5 mM […]) and suspended in the same buffer. In a Millipore 96-well plate with a 0.65 μm polyvinylidine membrane bottom were added the reaction components: 10 μL c-Src beads, 10 μL of 2.5 mg/mL poly GluTyr substrate, 5 μM ATP containing 0.2 μCi labeled ^32P-ATP, 5 μL DMSO containing inhibitors or as a solvent control, and buffer to make the final volume 125 μL. The reaction was started at room temperature by addition of the ATP and quenched 10 minutes later by the addition of 125 μL of 30% TCA, 0.1 M sodium pyrophosphate for 5 minutes on ice. The plate was then filtered and the wells washed with two […] aliquots of 15% TCA, 0.1 M pyrophosphate. The filters were then punched, counted in a liquid scintillation counter, and the data examined for inhibitory activity in comparison to a known inhibitor such as erbstatin. The method is also described in J. Med. Chem., 1994; 37:598-609. Tables 5 and 6 list c-Src inhibitory concentrations (IC50) for representative invention compounds.

cdk4/D, sequence (P11802 whole entry, species assumed): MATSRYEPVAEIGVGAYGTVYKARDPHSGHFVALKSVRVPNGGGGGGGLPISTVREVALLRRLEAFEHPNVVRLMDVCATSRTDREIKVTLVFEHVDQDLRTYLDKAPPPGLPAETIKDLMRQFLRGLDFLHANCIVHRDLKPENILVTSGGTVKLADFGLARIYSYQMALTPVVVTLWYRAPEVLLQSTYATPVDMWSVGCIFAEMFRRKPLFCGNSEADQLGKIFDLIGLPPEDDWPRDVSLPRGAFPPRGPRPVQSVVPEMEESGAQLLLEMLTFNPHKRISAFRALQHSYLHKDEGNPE
cdk4/D, sequence (P24385 whole entry partner, species assumed): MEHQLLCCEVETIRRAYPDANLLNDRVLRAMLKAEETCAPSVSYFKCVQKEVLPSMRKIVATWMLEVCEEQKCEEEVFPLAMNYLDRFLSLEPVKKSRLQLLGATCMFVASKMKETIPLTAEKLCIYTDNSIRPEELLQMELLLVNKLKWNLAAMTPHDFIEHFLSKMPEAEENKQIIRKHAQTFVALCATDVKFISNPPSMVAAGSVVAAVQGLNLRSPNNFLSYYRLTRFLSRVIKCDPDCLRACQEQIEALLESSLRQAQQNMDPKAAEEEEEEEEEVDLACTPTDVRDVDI

| SMILES | IC50 (cdk4/D) [nM] | IC50 (cdk2/cyclinE) [nM] | IC50 (cdk2/cyclinA) [nM] | IC50 (cdc2/cyclinB) [nM] | IC50 [1] [nM] | IC50 (c-Src) [nM] | melting point |
| --- | --- | --- | --- | --- | --- | --- | --- |
| CC(C)n1c(=O)ncc2cnc(Nc3ccc(N4CCC(CCCN5CCOCC5)CC4)cc3)nc21 [Example 43, 1-Isopropyl-7-{4-[4-(3-(morpholin-4-yl)propyl)piperidin-1-yl]phenylamino}-pyrimido[4,5-d]pyrimidin-2(1H)-one] | 540 | 38000 | 7490 | > 40000 | 4930 |  |  |
| CN1CCN(c2ccc(Nc3ncc4cnc(=O)n(C5CC6CCC5C6)c4n3)cc2)CC1 (stereo not drawn) [Example 44, 1-Bicyclo [2.2.1]hept-2-yl-7-[4-(4-methylpiperazin-1-yl)phenylamino]-pyrimido[4,5-d]pyrimidin-2(1H)-one, exo] | 18 | 1200 | 1030 | 7360 | 470 | 2300 | > 210 °C (dec.) |
